Measured values as given in patent US7217710B2, “Substituted pyrazolopyrimidines” (SmithKline Beecham Corporation, priority 2001, dated 2007).

Experiments:
[1] = biological target: Recombinant GST-Tie2 (Homo sapiens, UniProt Q02763); experiment: Tie2 Fluorescence Polarization Kinase Activity Assay (TIE2-FP); type: biochemical
Method: Tie2 Fluorescence Polarization Kinase Activity Assay: (TIE2-FP)
Activation of Recombinant Tie2 Activation:
Recombinant GST-Tie2 is activated by incubating the enzyme in 20 mM Tris-HCl, pH 7.5, 12 mM MgCl2, 100 mM NaCl, 20 μM sodium vanidate, 1 mM DTT and 300 μM ATP at room temperature for 2 hours. The activation mixture is then passed through a NAP-25 desalting column (Pharmacia Biotech cat. no. 17-0852-02) to remove the free ATP. The activated enzyme is stored as aliquots at −80° C. in 20 mM Tris-HCl, pH 7.5 and 100 mM NaCl.
The final assay conditions are 50 mM HEPES, pH 7.5, 5% DMSO (when screening compounds), 200 μM ATP, 5 mM MgCl2, 1 mM DTT, 50 μM sodium vanidate, 1 nM activated enzyme, and 200 μM peptide. IC50's of compounds are measured under subsaturating ATP (200 μM) and varying concentrations of activated Tie2 and peptide substrate (RFWKYEFWR-OH; MW 1873 Da, TFA salt). Panvera Anti-phosphotyrosine antibody (Cat#P2840) and PTK Green Tracer (Cat#P2842) are used to detect the phosphorylated peptide. Polarization is measured on a TECAN Polarion in 138-second cycles for 30 minutes at room temperature. IC50's are then determined from the % polarization using normal calculation methods. The IC50 values are converted to pIC50 values, i.e., −log IC50 in Molar concentration.

[2] = biological target: T1, GST-TIE2 (intracellular domains of human TIE2) (Homo sapiens, UniProt Q02763); experiment: TIE-2 Enzyme Assay (TIE2-E2), LANCE method; type: biochemical; details: for IC50: read-out: TIE2 PIC50 TIE2-E2 assay
T1 construct: made in house
In short: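 GST-tagged human TIE2 intracellular domain (aa 762–1104), preactivated 2 h with 80 μM ATP, then 5 nM enzyme run 2 h at room temperature with 1 μM biotinylated D1–15 peptide, 80 μM ATP, HEPES pH 7.4, 2.4% DMSO. Phosphotyrosine detected by LANCE (Eu anti-pTyr/streptavidin-APC) after EDTA stop; IC50 by nonlinear regression, reported as pIC50.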

[3] = biological target: T2, GST-VEGFR2 (Homo sapiens, UniProt P35968); experiment: VEGF-R2 Enzyme Assay (VEGF-E2), LANCE method; type: biochemical; details: for IC50: read-out: VEGFR2 PIC50 VEGFR-E2 assay
T2 construct: GST-VEGFR2, baculovirus expressed recombinant constructs of the intracellular domains; made in house

[4] = biological target: T3, catalytic domain of human VEGFR3 (Homo sapiens, UniProt P35916, H890Q); experiment: VEGFR-3 Homogenous Time-Resolved Fluorescence Assay (VEGFR-3-HTRF); type: biochemical; details: for IC50: read-out: VEGFR3 PIC50 VEGFR-3-HTRF assay
T3 construct: made in house; host or cells: Sf9 insect cells (baculovirus, pFastBac1)
In short: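 GST-tagged human VEGFR3 catalytic domain (aa 819–1298, Sf9-expressed), pre-autophosphorylated 45 min with ATP/Mg, then 1 nM enzyme with 0.36 μM biotinylated peptide, 75 μM ATP, 10 mM MgCl2, pH 7.2, 1.5 h at room temperature. EDTA stop; HTRF detection; IC50 from hyperbolic fit of % control.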

[5] = biological target: T4, TIE2 intracellular domain/c-fms extracellular domain (TIE2/c-fms) chimeric protein (Homo sapiens, UniProt Q02763); experiment: TIE-2 Autophosphorylation Assay (TIE2-C); type: cell-based; details: TIE2/c-fms expressing mouse 3T3 cells
T4 construct: fused on or other part: c-fms (CSF1R) extracellular domain in place of TIE2's own ectodomain; it serves as the capture handle for the anti-c-fms ELISA; P07333 (Macrophage colony-stimulating factor 1 receptor)
Method: TIE-2 Autophosphorylation Assay (TIE2-C)
The TIE-2 autophosphorylation assay uses an ELISA method and a TIE2 intracellular domain/c-fms extracellular domain (TIE2/c-fms) chimeric protein expressing mouse 3T3 cell line. This assay measures the autophosphorylation level of TIE2 protein expressed in cells. The cells are cultured in 96 well plates and grown in high glucose DMEM containing 10% serum at 37° C. in a humidified 10% CO2, 90% air incubator. On the day of the assay, the serum containing medium is removed from the cells and replaced with serum free medium for one hour. The test compound (diluted from a 10 mM stock in DMSO, final DMSO concentration is 0.1%) is incubated with TIE2/c-fms expressing cells for 30 minutes in serum free DMEM. Intrinsic cellular dephosphorylation of the receptor is blocked by the addition of the tyrosine phosphatase inhibitor, sodium orthovanadate, from a 100 mM aqueous stock to a final concentration of 1 mM. The culture media is removed by aspiration and the cells incubated for 30 to 60 mins on ice with lysis buffer containing 137 mM NaCl, 2 mM EDTA, 10% glycerol, 1 mM sodium ortho vanadate, 1×tyrosine phosphatase inhibitor cocktail (Sigma) and complete protease inhibitor cocktail (Roche) in 20 mM Tris-HCl (pH8.0). The cell extracts are transferred into Rat anti-c-fms antibody (Zymed-clone 12-2d6) ([…]) coated 96 well plates and incubated for 12 hrs at 4 degrees. The extracts are removed by aspiration and the plate, washed in a buffer comprising PBS, 0.05% Tween-20, 0.05% NP-40 and 5% SuperBlock (Pierce) followed by incubation with an HRP (horseradish peroxidase) conjugated anti-phosphotyrosine antibody, (Upstate Biotech) The plates are again washed with the aforementioned wash buffer and the colorimetric HRP substrate, TMB is added. The reaction progresses for 90 seconds and is stopped with the addition of 2M H2SO4. The optical density at 450 nm derived from HRP catalyzed TMB is measured with a plate reader capable of reading at the appropriate wavelength (e.g. SpectroMax from Molecular Dynamics). The percent inhibition of activity is calculated relative to non-vanadate treated control wells. The concentration of test compound that inhibits 50% of activity (IC50) is interpolated using nonlinear regression (Levernberg-Marquardt) and the equation, y=Vmax (1−x/(K+x))+Y2, where “K” is equal to the IC50.

T3 sequence (P35916 with tags, fused parts or gaps isoform P35916-1 H890Q): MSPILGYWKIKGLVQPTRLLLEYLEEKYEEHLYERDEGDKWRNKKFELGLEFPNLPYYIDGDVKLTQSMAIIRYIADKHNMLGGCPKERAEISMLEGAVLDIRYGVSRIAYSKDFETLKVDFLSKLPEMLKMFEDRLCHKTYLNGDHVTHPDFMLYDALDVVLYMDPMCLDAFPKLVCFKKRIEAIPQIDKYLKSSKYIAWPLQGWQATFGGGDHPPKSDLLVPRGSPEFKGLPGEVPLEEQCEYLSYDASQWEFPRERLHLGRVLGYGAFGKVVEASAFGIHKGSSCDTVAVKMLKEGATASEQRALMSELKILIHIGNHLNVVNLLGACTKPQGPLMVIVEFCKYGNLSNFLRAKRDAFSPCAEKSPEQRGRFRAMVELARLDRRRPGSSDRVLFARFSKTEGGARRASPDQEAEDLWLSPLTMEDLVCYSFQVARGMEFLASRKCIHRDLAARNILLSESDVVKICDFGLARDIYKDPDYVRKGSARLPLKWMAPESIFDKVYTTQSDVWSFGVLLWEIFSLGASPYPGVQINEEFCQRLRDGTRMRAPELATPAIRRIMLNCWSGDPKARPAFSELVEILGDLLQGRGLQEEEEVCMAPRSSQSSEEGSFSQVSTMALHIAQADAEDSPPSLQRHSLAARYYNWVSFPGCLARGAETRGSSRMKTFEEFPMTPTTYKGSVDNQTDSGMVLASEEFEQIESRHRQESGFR
T4 sequence (Q02763 whole entry, change not shown, the tested form may be a part): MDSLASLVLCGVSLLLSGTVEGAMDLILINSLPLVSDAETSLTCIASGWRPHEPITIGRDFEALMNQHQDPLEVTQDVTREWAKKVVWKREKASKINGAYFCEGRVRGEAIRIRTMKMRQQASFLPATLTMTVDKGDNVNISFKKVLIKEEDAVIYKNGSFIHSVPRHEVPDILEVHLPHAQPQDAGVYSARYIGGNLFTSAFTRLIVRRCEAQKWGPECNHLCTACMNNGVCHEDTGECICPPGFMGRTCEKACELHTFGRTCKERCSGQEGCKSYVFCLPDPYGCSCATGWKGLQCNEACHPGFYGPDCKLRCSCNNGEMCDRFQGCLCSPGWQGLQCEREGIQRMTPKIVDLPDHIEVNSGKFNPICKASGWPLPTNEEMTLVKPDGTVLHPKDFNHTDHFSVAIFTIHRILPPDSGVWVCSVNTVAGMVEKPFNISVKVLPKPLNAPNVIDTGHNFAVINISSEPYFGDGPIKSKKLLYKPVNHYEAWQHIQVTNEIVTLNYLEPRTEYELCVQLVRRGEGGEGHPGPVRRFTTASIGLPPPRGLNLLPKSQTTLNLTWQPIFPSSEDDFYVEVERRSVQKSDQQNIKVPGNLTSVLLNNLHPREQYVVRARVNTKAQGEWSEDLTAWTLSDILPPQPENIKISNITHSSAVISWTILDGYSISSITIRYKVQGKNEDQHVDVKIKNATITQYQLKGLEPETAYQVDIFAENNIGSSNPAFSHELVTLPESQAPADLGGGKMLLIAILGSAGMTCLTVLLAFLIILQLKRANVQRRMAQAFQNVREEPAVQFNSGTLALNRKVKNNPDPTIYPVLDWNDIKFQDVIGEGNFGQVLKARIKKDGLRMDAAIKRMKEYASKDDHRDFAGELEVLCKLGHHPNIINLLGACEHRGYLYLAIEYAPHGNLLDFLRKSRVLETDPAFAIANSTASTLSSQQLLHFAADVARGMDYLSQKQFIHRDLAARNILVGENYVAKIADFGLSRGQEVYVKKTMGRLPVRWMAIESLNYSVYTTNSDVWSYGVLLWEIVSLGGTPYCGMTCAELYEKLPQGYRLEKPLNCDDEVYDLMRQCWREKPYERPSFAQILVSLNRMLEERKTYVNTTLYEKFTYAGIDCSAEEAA
Chain of Recombinant GST-Tie2 (Q02763 23-1124): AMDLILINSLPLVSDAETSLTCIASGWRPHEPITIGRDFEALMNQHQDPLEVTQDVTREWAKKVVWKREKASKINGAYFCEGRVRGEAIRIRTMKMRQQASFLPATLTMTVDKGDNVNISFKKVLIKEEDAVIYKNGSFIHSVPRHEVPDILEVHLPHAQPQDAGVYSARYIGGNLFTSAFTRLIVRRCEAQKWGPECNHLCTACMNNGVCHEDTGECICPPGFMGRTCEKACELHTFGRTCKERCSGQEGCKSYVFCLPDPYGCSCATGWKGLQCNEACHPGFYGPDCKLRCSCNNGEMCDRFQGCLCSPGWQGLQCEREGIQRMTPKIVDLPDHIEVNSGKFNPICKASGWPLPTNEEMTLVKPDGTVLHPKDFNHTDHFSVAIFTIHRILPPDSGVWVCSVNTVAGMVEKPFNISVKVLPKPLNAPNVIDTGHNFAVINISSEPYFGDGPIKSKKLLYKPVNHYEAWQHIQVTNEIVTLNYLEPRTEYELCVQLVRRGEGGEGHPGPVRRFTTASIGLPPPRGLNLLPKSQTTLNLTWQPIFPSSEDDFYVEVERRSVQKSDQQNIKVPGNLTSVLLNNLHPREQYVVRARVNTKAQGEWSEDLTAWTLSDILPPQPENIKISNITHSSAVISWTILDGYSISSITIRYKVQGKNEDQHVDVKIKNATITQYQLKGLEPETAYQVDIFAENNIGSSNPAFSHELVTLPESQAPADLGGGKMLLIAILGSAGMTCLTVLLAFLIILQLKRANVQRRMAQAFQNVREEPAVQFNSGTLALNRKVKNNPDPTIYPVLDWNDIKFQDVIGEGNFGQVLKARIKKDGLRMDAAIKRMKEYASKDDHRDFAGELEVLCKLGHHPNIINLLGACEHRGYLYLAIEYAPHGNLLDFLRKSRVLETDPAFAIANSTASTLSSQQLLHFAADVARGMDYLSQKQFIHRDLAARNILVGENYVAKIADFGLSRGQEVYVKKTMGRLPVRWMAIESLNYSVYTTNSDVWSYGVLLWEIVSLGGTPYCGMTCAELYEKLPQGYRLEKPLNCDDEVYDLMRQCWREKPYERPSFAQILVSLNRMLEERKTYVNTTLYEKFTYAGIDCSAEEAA
T1 sequence (Q02763 762-1104): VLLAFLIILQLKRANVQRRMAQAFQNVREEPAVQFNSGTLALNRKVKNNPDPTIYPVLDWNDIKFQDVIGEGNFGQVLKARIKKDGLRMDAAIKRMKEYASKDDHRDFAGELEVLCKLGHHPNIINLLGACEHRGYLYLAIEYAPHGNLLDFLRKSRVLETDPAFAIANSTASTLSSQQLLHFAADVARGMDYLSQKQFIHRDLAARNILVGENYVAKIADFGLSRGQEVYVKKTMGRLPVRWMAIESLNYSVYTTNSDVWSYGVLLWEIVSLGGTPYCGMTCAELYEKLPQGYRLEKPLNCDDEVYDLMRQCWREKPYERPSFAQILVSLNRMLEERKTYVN
T2 sequence (P35968 786-1356 limits assumed): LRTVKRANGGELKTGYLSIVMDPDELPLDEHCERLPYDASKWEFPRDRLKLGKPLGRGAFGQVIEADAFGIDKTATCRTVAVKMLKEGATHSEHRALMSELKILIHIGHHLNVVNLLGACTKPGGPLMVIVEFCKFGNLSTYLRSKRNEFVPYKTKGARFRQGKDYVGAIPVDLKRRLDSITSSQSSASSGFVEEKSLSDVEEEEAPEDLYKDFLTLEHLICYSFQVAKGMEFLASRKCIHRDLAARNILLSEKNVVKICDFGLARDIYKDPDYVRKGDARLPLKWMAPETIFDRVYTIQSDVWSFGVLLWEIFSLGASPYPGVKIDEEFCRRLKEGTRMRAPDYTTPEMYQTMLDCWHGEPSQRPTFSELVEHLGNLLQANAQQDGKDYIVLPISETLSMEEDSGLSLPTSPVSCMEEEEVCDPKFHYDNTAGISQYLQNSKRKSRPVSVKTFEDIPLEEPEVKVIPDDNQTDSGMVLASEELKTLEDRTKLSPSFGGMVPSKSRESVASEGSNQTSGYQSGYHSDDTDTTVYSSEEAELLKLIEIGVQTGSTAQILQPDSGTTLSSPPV

| inhibition at 10 µM [1] | IC50 [2] | IC50 [3] | IC50 [4] | IC50 [5] | Compound | further results |
| --- | --- | --- | --- | --- | --- | --- |
| 41% |  |  |  |  | Cn1nc(-c2ccc(NS(=O)(=O)c3ccc(Cl)s3)cc2)c2cnc(NCCN3CCOCC3)nc21 [Example 150] |  |
|  | ≤ 39.8 nM | 0.1 to 1 µM | 1 to 10 µM | ≥ 300 nM | Cn1nc(-c2ccc(NC(=O)Nc3cc(C(F)(F)F)ccc3F)cc2)c2cnc(NCCCn3ccnc3)nc21 [Example 100, 1-(2-Fluoro-5-trifluoromethyl-phenyl)-3-{4-[1-methyl-6-(3-imidazol-1-yl-propylamino)-1H-pyrazolo[3,4-d]pyrimidin-3-yl]-phenyl} urea] |  |
|  | ≤ 39.8 nM | 1 to 10 µM | 1 to 10 µM | 100 to 300 nM | Cn1nc(-c2ccc(NC(=O)Nc3cc(C(F)(F)F)ccc3F)cc2)c2cnc(NCCCCN3CCCC3)nc21 [Example 91, 1-(2-Fluoro-5-trifluoromethyl-phenyl)-3-{4-[1-methyl-6-[(4-pyrrolidin-1-yl)-butylamino]-1H-pyrazolo[3,4-d]pyrimidin-3-yl]-phenyl} urea] |  |
| 36% |  |  |  |  | Cn1nc(-c2ccc(NS(=O)(=O)c3ccccc3F)cc2)c2cnc(NCCN3CCOCC3)nc21 [Example 148] |  |
|  | 39.8 to 100 nM |  | 0.1 to 1 µM | ≥ 300 nM | Cn1cncc1CCNc1ncc2c(-c3ccc(NC(=O)Nc4cc(C(F)(F)F)ccc4F)cc3)nn(C)c2n1 [Example 146, 1-(2-Fluoro-5-trifluoromethyl-phenyl)-3-{4-[(1-methyl-6-(2-[3-methyl-3H-imidazol-4-yl)-ethylamino)-1H-pyrazolo[3,4-d]pyrimidin-3-yl]-phenyl]} urea] |  |
| 44% |  |  |  |  | Cc1cc(-c2nn(C)c3nc(NCCN4CCOCC4)ncc23)ccc1NS(=O)(=O)c1ccccc1F [Example 153] |  |
|  | ≤ 39.8 nM | 1 to 10 µM | > 10 µM | ≥ 300 nM | Cn1nc(-c2ccc(NC(=O)Nc3cc(C(F)(F)F)ccc3F)cc2)c2cnc(NCCCN3CCOCC3)nc21 [Example 84] |  |
| 23% |  |  |  |  | Cn1nc(-c2ccc(NS(=O)(=O)c3cccc(C(F)(F)F)c3)cc2)c2cnc(NCCN3CCOCC3)nc21 [Example 156] |  |
|  |  |  |  |  | CCN(CC)CCNc1ncnc2c1c(-c1ccc(NC(=O)Nc3cc(C(F)(F)F)ccc3F)cc1)nn2C [Example 33, 1-{4-[(2-Diethylamino-ethylamino)-methyl-1H-pyrazolo[3,4-d]pyrimidin-3-yl]-phenyl}-3-(2-fluoro-5-trifluoromethyl-phenyl)-urea] | IC50 [1]: ≥ 300 nM |
| 49% |  |  |  |  | Cn1nc(-c2ccc(NS(=O)(=O)c3cccc(Cl)c3Cl)cc2)c2cnc(NCCN3CCOCC3)nc21 [Example 147] |  |
| 37% |  |  |  |  | Cc1cc(-c2nn(C)c3nc(NCCN4CCOCC4)ncc23)ccc1NS(=O)(=O)c1ccc(Cl)s1 [Example 154] |  |
| 13% |  |  |  |  | Cc1cc(-c2nn(C)c3nc(NCCN4CCOCC4)ncc23)ccc1NS(=O)(=O)c1cccc(C(F)(F)F)c1 [Example 152] |  |
|  | 39.8 to 100 nM | 1 to 10 µM | 1 to 10 µM | ≥ 300 nM | Cn1nc(-c2ccc(NC(=O)Nc3cc(C(F)(F)F)ccc3F)cc2)c2cnc(NCCN3CCNC3=O)nc21 [Example 90] |  |
|  | 39.8 to 100 nM |  | 1 to 10 µM | ≥ 300 nM | Cn1nc(-c2ccc(NC(=O)Nc3cc(C(F)(F)F)ccc3F)cc2)c2cnc(NCCc3c[nH]cn3)nc21 [Example 145] |  |
| 23% |  |  |  |  | Cc1cc(-c2nn(C)c3nc(NCCN4CCOCC4)ncc23)ccc1NS(=O)(=O)c1cc(Cl)sc1Cl [Example 155] |  |
|  | ≤ 39.8 nM | 1 to 10 µM | 1 to 10 µM | 100 to 300 nM | Cn1nc(-c2ccc(NC(=O)Nc3cc(C(F)(F)F)ccc3F)cc2)c2cnc(NCCCCO)nc21 [Example 93, 1-(2-Fluoro-5-trifluoromethyl-phenyl)-3-{4-[1-methyl-6-(4-hydroxy-butylamino)-1H-pyrazolo[3,4-d]pyrimidin-3-yl]-phenyl} urea] |  |
|  | ≤ 39.8 nM |  | > 10 µM | ≥ 300 nM | CC1CCCCN1CCCNc1ncc2c(-c3ccc(NC(=O)Nc4cc(C(F)(F)F)ccc4F)cc3)nn(C)c2n1 (stereo not shown) [Example 85] |  |
|  | ≤ 39.8 nM | > 10 µM |  | 100 to 300 nM | Cn1nc(-c2ccc(NC(=O)Nc3cc(C(C)(C)C)on3)c(F)c2)c2cnc(NCCCN3CCOCC3)nc21 [Example 134] |  |
|  | ≤ 39.8 nM | 1 to 10 µM | 1 to 10 µM | 100 to 300 nM | Cn1nc(-c2ccc(NC(=O)Nc3cc(C(C)(C)C)on3)c(F)c2)c2cnc(NCCN3CCOCC3)nc21 [Example 57, 1-(5-tert-Butyl-isoxazol-3-yl)-3-{2-fluoro-4-[1-methyl-6-(2-morpholin-4-yl-ethylamino)-1H-pyrazolo[3,4-d]pyrimidin-3-yl]-phenyl}-urea] |  |
|  | ≤ 39.8 nM | 1 to 10 µM | 1 to 10 µM | < 100 nM | Cn1nc(-c2ccc(NC(=O)Nc3cc(C(F)(F)F)ccc3F)cc2)c2cnc(NCCCO)nc21 [Example 92, 1-(2-Fluoro-5-trifluoromethyl-phenyl)-3-{4-[1-methyl-6-(3-hydroxy-propylamino)-1H-pyrazolo[3,4-d]pyrimidin-3-yl]-phenyl} urea] |  |
|  | ≤ 39.8 nM | > 10 µM | > 10 µM | ≥ 300 nM | CN1CCN(CCCNc2ncc3c(-c4ccc(NC(=O)Nc5cc(C(F)(F)F)ccc5F)cc4)nn(C)c3n2)CC1 [Example 64] |  |

| Compound | inhibition at 10 µM [1] | IC50 [2] | IC50 [3] | IC50 [4] | IC50 [5] | further results |
| --- | --- | --- | --- | --- | --- | --- |
| CC(C)n1nc(-c2ccc(NC(=O)Nc3cc(C(F)(F)F)ccc3F)cc2)c2cnc(NCCN3CCOCC3)nc21 [Example 78] |  |  |  |  | ≥ 300 nM | TIE2 PIC50 TIE2-E2 assay [2]: +++ (+++ = PIC50 = 7.00 to less than 7.40); VEGFR2 PIC50 VEGFR-E2 assay [3]: + (+ = PIC50 = 5.00 to less than 6.00); VEGFR3 PIC50 VEGFR-3-HTRF assay [4]: + (+ = PIC50 = 5.00 to less than 6.00) |
| 1-(5-tert-Butyl-isoxazol-3-yl)-3-{2-fluoro-4-[1-methyl-6-(3-(imidazol-1-yl propylamino)-1H-pyrazolo[3,4-d]pyrimidin-3-yl)-phenyl]} urea [Example 139] |  |  |  |  | 100 to 300 nM | TIE2 PIC50 TIE2-E2 assay [2]: ++++ (++++ = PIC50 = greater than or equal to 7.40); VEGFR2 PIC50 VEGFR-E2 assay [3]: + (+ = PIC50 = 5.00 to less than 6.00); VEGFR3 PIC50 VEGFR-3-HTRF assay [4]: + (+ = PIC50 = 5.00 to less than 6.00) |
